This note sets out measurements from ChEMBL document CHEMBL4813985, “Lead optimization generates selenium-containing miconazole CYP51 inhibitors with improved pharmacological profile for the treatment of fungal infections” (Eur J Med Chem, 2021).

Converted amounts (≈) assume the structure as drawn. The source made the active and inactive calls.

Data set [1] in a line: Selectivity ratio of IC50 for human MCF-10A cells to MIC for Candida albicans CPCC400616. Format: toxicity.
Data set [2] concerns Candida albicans. The experiment in a line: Potency index, ratio of fluconazole MIC to test compound MIC for Candida albicans CPCC400616 measured after 24 hrs by broth microdilution assay. Format: functional.
Data set [3] deals with T1, Lanosterol 14-alpha demethylase (Candida albicans (strain SC5314 / ATCC MYA-2876) (Yeast), UniProt P10613). The experiment in a line: Inhibition of CYP51 in Candida albicans ATCC SC5314 assessed as Obtusifoliol level at […] ug/ml after 16 hrs by GC-MS analysis (reference value: 0%). The conditions noted are these: candida albicans sc5314, 16 h, dose 0.125 µg/ml. The arrangement: scale not given: the % may be the effect or the level left.

In data set [4] the target is T1, Lanosterol 14-alpha demethylase. The experiment in a line: Inhibition of CYP51 in Candida albicans ATCC SC5314 assessed as ergosterol level at […] ug/ml after 16 hrs by GC-MS analysis (reference value: 98.3%). The conditions noted are these: candida albicans sc5314, 16 h, dose 0.125 µg/ml. Also noted: scale not given: the % may be the effect or the level left.
Data set [5] in a line: Selectivity ratio of IC50 for human MDA-MB-231 cells to MIC for Candida albicans CPCC400616. Format: toxicity.
Data set [6] in a line: Selectivity ratio of IC50 for human HL-60 cells to MIC for Candida albicans CPCC400616. Format: toxicity.
Data set [7] has as its system Candida albicans. The experiment in a line: Antifungal activity against fluconazole-resistant Candida albicans 904 assessed as inhibition of microbial growth after 24 hrs by broth microdilution method. Format: functional. Background: Dilution methods test growth across graded concentrations, often in twofold steps.
The subject of data set [8] is Candida albicans. The experiment in a line: Antifungal activity against fluconazole-resistant Candida albicans 632 assessed as inhibition of microbial growth after 24 hrs by broth microdilution method. Format: functional.
In data set [9] the test system is Candida albicans. Nature of the data set: Antifungal activity against fluconazole-resistant Candida albicans CaR assessed as inhibition of microbial growth after 24 hrs by broth microdilution method. In kind it is functional.
Data set [10] can be described thus: Half life in Sprague-Dawley rat at 5 mg/kg, po by LC-MS analysis. Format: ADME, organism-based. Conditions: in vivo.
Data set [11] deals with Candida albicans. Nature of the data set: Fungicidal activity against Candida albicans CPCC400616 at 2 ug/ml incubated within 8 hrs and measured after 24 hrs culturing on PDA plate by time-kill kinetics analysis (reference value: 5 log10CFU/ml). The conditions noted are these: dose 2 µg/ml; time 32 hrs. In kind it is functional.
Data set [12] is described as follows: AUC (0 to t) in Sprague-Dawley rat at 2 mg/kg, iv by LC-MS analysis. Format: ADME, organism-based. The arrangement: dose 2 mg/kg. Conditions: in vivo.
For data set [13], the system named is Candida albicans. Nature of the data set: Antifungal activity against fluconazole-resistant Candida albicans 901 assessed as inhibition of microbial growth after 24 hrs by broth microdilution method. Format: functional.
The test system of data set [14] is MCF-10A. Nature of the data set: Cytotoxicity against human MCF-10A cells assessed as reduction in cell viability incubated for 96 hrs by MTT assay. Format: cell-based. Conditions: read-out: IC50. A general note: Tetrazolium dyes change colour on reduction, which living cells bring about.
Data set [15] can be described thus: AUC (0 to t) in Sprague-Dawley rat at 5 mg/kg, po by LC-MS analysis. In kind it is ADME, organism-based. Also noted: dose 5 mg/kg. The conditions noted are these: in vivo.
Data set [16] can be described thus: Hemolytic activity in rabbit RBC assessed as hemolysis ratio at 2 ug/ml measured after 3 hrs by microplate reader assay relative to control. In kind it is ADME, cell-based, Oryctolagus cuniculus, Erythrocyte. The conditions noted are these: rabbit red blood cells (erythrocytes), at 2 µg/mL, read-out: Activity.
A short description of data set [17]: Half life in Sprague-Dawley rat at 2 mg/kg, iv by LC-MS analysis. In kind it is ADME, organism-based. The conditions noted are these: in vivo.
Data set [18] has as its target T1, Lanosterol 14-alpha demethylase. Nature of the data set: Inhibition of CYP51 in Candida albicans ATCC SC5314 assessed as lanosterol level at 2 ug/ml after 16 hrs by GC-MS analysis (reference value: 1.7%). Conditions: candida albicans sc5314, 16 h, at 2 µg/mL. Also noted: scale not given: the % may be the effect or the level left.
Data set [19] has as its system Candida albicans. Nature of the data set: Antifungal activity against Candida albicans ATCC SC5314 infected in mouse model of candidiasis assessed as reduction in kidney fungal burden at 0.4 mg/kg/day, ip dosed at 2 hrs post infection and dosed for 4 days. Conditions: time 4.0 day. In kind it is functional, organism-based.
Data set [20] deals with Pichia kudriavzevii. Nature of the data set: Antifungal activity against Candida krusei AS2.1045 measured after 24 hrs by broth microdilution assay. In kind it is functional.
Data set [21] can be described thus: Selectivity ratio of IC50 for human PC-3 cells to MIC for Candida albicans CPCC400616. In kind it is toxicity.
Data set [22] has as its system Candida albicans. The experiment in a line: Antifungal activity against fluconazole-resistant Candida albicans 17# assessed as inhibition of microbial growth after 24 hrs by broth microdilution method. In kind it is functional.
For data set [23], the system named is Candida albicans. The experiment in a line: Fungicidal activity against Candida albicans CPCC400616 incubated for 24 hrs and measured after 24 hrs culturing on PDA plate by time-kill kinetics analysis. Format: functional, organism-based. The conditions noted are these: dose 0.25-2 µg/ml, time 48.0 hrs.
Data set [24] in a line: Oral bioavailability in Sprague-Dawley rat at 5 mg/kg by LC-MS analysis. Conditions: in vivo. Format: ADME, organism-based.
The subject of data set [25] is Candida albicans. Nature of the data set: Anti-biofilm activity in Candida albicans CPCC400616 assessed as inhibition of biofilm formation at 16 ug/ml incubated for 24 hrs with 3 hrs precultured fungal suspension by XTT assay relative to control. Format: functional.
For data set [26], the system named is MDA-MB-231. Nature of the data set: Cytotoxicity against human MDA-MB-231 cells assessed as reduction in cell viability incubated for 96 hrs by MTT assay. Conditions: MDA-MB-231, 96 h.
The test system of data set [27] is Candida parapsilosis. The experiment in a line: Antifungal activity against Candida parapsilosis ATCC 22019 measured after 24 hrs by broth microdilution assay. In kind it is functional. The conditions noted are these: Lodderomyces parapsilosis.
In data set [28] the test system is Candida albicans. Nature of the data set: Antifungal activity against Candida albicans ATCC SC5314 infected in mouse model of candidiasis assessed as reduction in kidney fungal burden at 0.6 mg/kg/day, ip dosed at 2 hrs post infection and dosed for 4 days. In kind it is functional, organism-based. The conditions noted are these: time 4.0 day.
In data set [29] the target is T1, Lanosterol 14-alpha demethylase. Nature of the data set: Inhibition of CYP51 in Candida albicans ATCC SC5314 assessed as Eburicol level at 0.5 ug/ml after 16 hrs by GC-MS analysis (reference value: 0%). The arrangement: scale not given: the % may be the effect or the level left. The conditions noted are these: candida albicans sc5314, 16 h, at 0.5 µg/mL.
The test system of data set [30] is Erythrocyte. The experiment in a line: Hemolytic activity in rabbit RBC measured after 3 hrs by microplate reader assay. In kind it is ADME, cell-based, Oryctolagus cuniculus.
In data set [31] the test system is Candida albicans. Nature of the data set: Anti-biofilm activity in Candida albicans CPCC400616 assessed as inhibition of biofilm formation at 32 ug/ml incubated for 24 hrs with 3 hrs precultured fungal suspension by XTT assay relative to control. Format: functional.
Data set [32] relates to Candida albicans. Nature of the data set: Ratio of MFC for Candida albicans CPCC400616 incubated for 48 hrs followed by culturing on PDA plate for 24 hrs to MIC for Candida albicans CPCC400616 measured after 24 hrs. In kind it is functional.
The subject of data set [33] is Candida albicans. The experiment in a line: Fungicidal activity against Candida albicans CPCC400616 at 2 ug/ml incubated for 24 hrs and measured after 24 hrs culturing on PDA plate by time-kill kinetics analysis. In kind it is functional, organism-based. The conditions noted are these: dose 2.0 µg/ml, time 48.0 hrs.

T1 sequence (P10613 whole entry): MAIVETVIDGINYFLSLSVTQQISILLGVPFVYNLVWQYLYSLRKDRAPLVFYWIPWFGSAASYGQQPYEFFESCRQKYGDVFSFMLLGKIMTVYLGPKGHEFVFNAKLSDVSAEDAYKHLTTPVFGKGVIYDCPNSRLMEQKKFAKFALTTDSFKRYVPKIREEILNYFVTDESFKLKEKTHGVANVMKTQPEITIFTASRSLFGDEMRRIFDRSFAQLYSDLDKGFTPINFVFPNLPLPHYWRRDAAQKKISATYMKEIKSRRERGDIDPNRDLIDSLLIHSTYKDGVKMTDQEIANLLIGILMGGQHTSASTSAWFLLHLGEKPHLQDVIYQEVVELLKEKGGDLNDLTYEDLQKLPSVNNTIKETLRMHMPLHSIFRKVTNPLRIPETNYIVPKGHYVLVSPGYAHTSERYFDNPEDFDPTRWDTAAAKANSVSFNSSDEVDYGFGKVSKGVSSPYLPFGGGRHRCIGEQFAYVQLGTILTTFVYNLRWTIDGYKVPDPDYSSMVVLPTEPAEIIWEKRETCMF

The term MIC denotes the least concentration at which growth counts as inhibited. In general, half-life refers to the time needed for the level to fall by half in the phase considered. For orientation: AUC(0-t) means exposure summed from dosing to a finite time, without extrapolation to infinity. The IC50 is the concentration that gives 50% inhibition. By bioavailability is commonly meant the share of a dose that reaches the circulation, judged against a reference dose that is usually intravenous. The term inhibition denotes the relative decrease from the control value, in per cent. Regarding `Fc1ccc([Se]C(Cn2ccnc2)c2ccc(F)cc2F)cc1` (stereo unspecified), the selectivity ratio in data set [1], in [5], in [6] and in data set [21] was 38 throughout. The Ratio in data set [2] was determined as 8. Besides, the Activity in data set [3] was 11.1%; in data set [4], 5.8%; in data set [11], 2 log10CFU/ml; in [18] it was 9%; in data set [23] it was “Dose-Dependent Effect”; in data set [29], 75.1%. Besides, the MIC in [7] stood at 0.06 µg/mL; in data set [8], 0.5 µg/mL; in data set [9], 1 µg/mL; in data set [13] it was 0.5 µg/mL; in data set [20], 0.5 µg/mL (≈ 1.31 µM); in data set [22], 0.06 µg/mL. Moreover, the minimum inhibitory concentration (MIC) in data set [27] stood at 0.03 µg/mL (≈ 0.0787 µM). The half-life in data set [10] was 1.93 h; in data set [17] it was 1.89 h. Further, the results for the AUC(0-t) in data set [12] and in [15] were 2250 ng·h/mL and 1260 ng·h/mL, respectively. Further, the IC50 in data set [14] worked out at 59.4 µM; in data set [26] it was 39.5 µM. In data set [16], the hemolysis at 3 h, 2 ug/ml came out at 0%. The outcome in [19] and in data set [28] was Active. This molecule also yielded a bioavailability in data set [24] of 22.3%. For the same molecule, the inhibition at 16 µg/mL in data set [25] worked out at 80%.
Regarding `Clc1ccc(COC(Cn2ccnc2)c2ccc(Cl)cc2Cl)c(Cl)c1` (stereo unspecified) [MICONAZOLE], the Activity worked out at 17.4% in data set [3], 8.3% in [4], 13.6% in data set [18] and 75.1% in data set [29]. Also, the MHC in data set [30] amounted to 8 µg/mL. Moreover, in data set [31], the inhibition at 32 µg/mL is 50%. Further, the hemolysis at 3 h, 2 ug/ml in data set [16] is 8.55%. Moreover, the Ratio in data set [32] was found to be 8. Moreover, the MIC was determined as 0.5 µg/mL (≈ 1.2 µM) in data set [20] and 0.25 µg/mL (≈ 0.601 µM) in data set [27]. The result in data set [33] was Active. Further, in data set [26], the IC50 was 17 µM.
